Results as given in patent US10703735B2, “4-phenyl-coumarin derivatives, processes for their preparation and uses thereof for the treatment of cancer” (Lead Discovery Center GmbH, priority 2018, dated 2020).
pIC50: −log10 of the molar value.

Columns and labels:
[1] = molecular target: mitochondrial RNA-polymerase (POLRMT) (Mus musculus, UniProt Q8BKF1); experiment: Homogeneous TR-FRET assay for mitochondrial transcription activity; assay type: biochemical; details: homogeneous TR-FRET assay according to Example 4; read-out: mitochondrial transcription activity (IC-50)
Sequence of mitochondrial RNA-polymerase (POLRMT) (Q8BKF1 42-1207): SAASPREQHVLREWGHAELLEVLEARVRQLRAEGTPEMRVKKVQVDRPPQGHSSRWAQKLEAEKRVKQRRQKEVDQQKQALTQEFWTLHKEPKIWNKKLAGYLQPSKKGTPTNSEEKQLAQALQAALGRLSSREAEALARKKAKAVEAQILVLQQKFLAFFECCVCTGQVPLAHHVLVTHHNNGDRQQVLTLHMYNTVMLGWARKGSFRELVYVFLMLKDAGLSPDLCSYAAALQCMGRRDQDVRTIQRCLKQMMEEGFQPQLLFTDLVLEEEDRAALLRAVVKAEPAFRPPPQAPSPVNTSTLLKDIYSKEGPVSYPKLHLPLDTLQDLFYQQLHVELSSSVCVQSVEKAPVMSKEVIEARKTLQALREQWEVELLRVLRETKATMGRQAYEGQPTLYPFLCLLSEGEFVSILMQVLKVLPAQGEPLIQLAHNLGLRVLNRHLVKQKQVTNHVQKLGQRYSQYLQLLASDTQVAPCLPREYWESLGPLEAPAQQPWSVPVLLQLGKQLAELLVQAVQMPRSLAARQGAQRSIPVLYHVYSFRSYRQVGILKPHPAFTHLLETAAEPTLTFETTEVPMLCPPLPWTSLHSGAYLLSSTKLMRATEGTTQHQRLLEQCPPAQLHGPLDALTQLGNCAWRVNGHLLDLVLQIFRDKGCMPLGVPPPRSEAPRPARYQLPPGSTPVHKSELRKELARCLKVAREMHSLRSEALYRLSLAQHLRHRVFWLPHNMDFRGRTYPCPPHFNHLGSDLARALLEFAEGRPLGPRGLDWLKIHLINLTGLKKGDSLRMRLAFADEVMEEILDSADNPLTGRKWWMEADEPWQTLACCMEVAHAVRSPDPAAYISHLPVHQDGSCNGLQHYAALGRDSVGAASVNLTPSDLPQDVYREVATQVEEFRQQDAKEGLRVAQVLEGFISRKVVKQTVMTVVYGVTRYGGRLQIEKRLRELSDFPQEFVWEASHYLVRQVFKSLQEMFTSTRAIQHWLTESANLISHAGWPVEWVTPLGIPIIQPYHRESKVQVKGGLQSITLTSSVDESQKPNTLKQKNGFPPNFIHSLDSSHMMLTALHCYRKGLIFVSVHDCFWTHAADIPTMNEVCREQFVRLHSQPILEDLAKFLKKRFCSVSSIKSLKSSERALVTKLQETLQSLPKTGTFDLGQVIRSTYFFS
Source text: The TR-FRET assay was basically conducted as described in WO 2016/193231A1, especially as described in example 1 (hereby incorporated by reference). With respect to the background of the mitochondrial transcription it is referred to Falkenberg et al. (2002) and Posse et al. (Posse et al. 2015). The method monitors the activity of mitochondrial RNA-polymerase via detection of the formation of its product, a 407 bp long RNA sequence. Detection of the product is facilitated by hybridization of two DNA-oligonucleotide probes to specific and adjacent sequences within the RNA product sequence. Upon annealing of the probes, two fluorophores that are coupled directly to an acceptor nucleotide probe (ATT0647, 5′) or introduced via a coupled streptavidin interacting with a biotinylated donor nucleotide probe on the other side (Europium cryptate, 3) are brought into sufficient proximity to serve as a fluorescence-donor-acceptor pair as generally described in Walters and Namchuk (2003). Thus, a FRET signal at 665 nm is generated upon excitation at 340 nm.
Briefly, the protocol described here was applied for screening and activity determination in a low-volume 384-well microtiter plate with non-binding surface. For high-throughput application in the 1536-well microtiter plate format, volumes of the reagent mixes were adjusted, maintaining the volumetric ratio. Proteins POLRMT (NM_172551.3), TFAM (NM_009360.4) and TFB2M (NM_008249.4) were diluted from their stocks to working concentrations of 150 nM, 1.8 μM and 330 nM respectively, in a dilution buffer containing 100 mM Tris-HCl pH 8.0, 200 mM NaCl, 10% (v/v) glycerole, 2 mM glutathione (GSH), 0.5 mM EDTA and 0.1 mg/mL BSA. Protein dilutions and template DNA, comprising a pUC18 plasmid encoding the mitochondrial light strand promoter, restriction linearized proximal to the promoter 3′-end (pUC-LSP), were mixed at the twofold final assay-concentration in a reaction buffer, containing 10 mM Tris-HCl pH 7.5, 10 mM MgCl2, 40 mM NaCl, 2 mM GSH, 0.01% (w/v) Tween-20 and 0.1 mg/mL BSA.
5 μL of this mix were dispensed, depending on the chosen microtiter plate format, using multi-channel pipettes or a Multidrop® dispenser (Thermo Fisher Scientific, Waltham Mass.) into the wells of a microtiter plate and incubated at room temperature (RT) for 10 min. Chemical compounds under scrutiny in the assay were applied using contact-free acoustic droplet-dispensing (Echo520® Labcyte Inc., Sunnyvale Calif.) from 10 mM compound stocks in 100% DMSO, to a final concentration of 10 μM or in serial dilution series of the required concentration range. Equal amounts of DMSO without any compound were added to positive control samples, followed by an incubation step at RT for 10 min.
The enzymatic reaction was started by the addition of 5 μL of a mix of dNTPs in reaction buffer to a final concentration of 500 μM each. No nucleotide mix was added to negative control samples. The content of the wells was mixed using a VarioTeleshaker™ (Thermo Fisher Scientific, Waltham Mass.) at 1500 rpm for 45 sec after which the microtiter plate was centrifuged at 500×g for 1 min. The samples were incubated for 2 h at RT with humidity control to avoid evaporation. The detection reagents were prepared in a buffer that was composed, such that the enzymatic reaction was terminated due to chelating of Mg-ions and increased ionic strength, containing 50 mM Tris-HCl pH 7.5, 700 mM NaCl, 20 mM EDTA, and 0.01% (w/v) Tween-20. Importantly Eu-cryptate-coupled streptavidin had to be preincubated with a 100-fold molar excess of a random sequence oligonucleotide for 10 min at RT in the dark to block unspecific binding of single stranded RNA to the protein. Subsequently, the blocked streptavidin(-Eu) was mixed with the DNA-probes on ice and kept away from light until use. […]

[2] = test system: mitochondrial transcription (7S RNA) in HeLa cells; experiment: Quantitative real time-PCR assay of inhibition of mitochondrial transcription (7S RNA) in HeLa cells; assay type: cell-based; details: Homo sapiens, 4 h incubation, Example 5, read-out: cellular qPCR assay IMT (IC-50)
Method: Quantitative real-time PCR (qRT-PCR), based on the TaqMan™ (Thermo Fisher Scientific, Waltham Mass.) technology, was carried out essentially as described in (Heid et al. 1996). HeLa cells were plated one day before compound treatment in RPMI medium supplemented with 10% Fetal Calf Serum and 2 mM L-glutamine. Cells were incubated with dilution series of compounds or vehicle (DMSO) for 4 h, prior to harvest and extraction of the RNA using the RNeasy Mini Kit (Qiagen, Hilden D), according to the manufacturer's instructions. RNA concentrations were measured spectroscopically, using a NanoDrop-2000 (Thermo Fisher Scientific, Waltham Mass.) and normalized prior to cDNA synthesis, using a ‘High-Capacity cDNA Reverse Transcription Kit’ (Thermo Fisher Scientific, Waltham Mass.). qRT-PCR was carried out using the ‘TaqMan Fast Advance Master Mix’ (Thermo Fisher Scientific, Waltham Mass.) on a 7500 Fast Real-Time PCR machine (Applied Biosystems, Foster City Calif.)
For these measurements, three genes were used to compare the effect of the scrutinized compounds in relation to their concentration. The POLRMT-gene was used to detect potential influences on nuclear transcription. Mitochondrial transcription in vivo was monitored by measurements 7S RNA. The TBP (TATA-box binding protein) gene was employed as the control (housekeeping gene) during qRT-PCR. The short-lived mitochondrial 7S RNA, which is not post-transcriptionally stabilized, allowed us to monitor rapid changes in mitochondrial transcription activity following compound addition. Biological triplicates were analyzed using the comparative CT Method (ΔΔCt) method (Bubner et al. 2004) and reported as Rq % values (Rq=Relative quantification=2-ΔΔCt).

| pIC50 [1] | pIC50 [2] | SMILES |
| --- | --- | --- |
| 6.00 to 7.00 | > 8.00 | CC(Oc1ccc2c(-c3ccccc3)cc(=O)oc2c1)C(=O)OC(C)(C)C (stereo not shown) [Compound 1, tert-butyl 2-(2-oxo-4-phenyl-chromen-7-yl)oxypropanoate] |
| 6.00 to 7.00 | 7.30 to 8.00 | CC(Oc1ccc2c(-c3ccccc3)cc(=O)oc2c1)C(=O)N(C)C (stereo not shown) [Compound 2, N,N-dimethyl-2-(2-oxo-4-phenyl-chromen-7-yl)oxy-propanamide] |
| 7.00 to 7.70 | 7.30 to 8.00 | CCOC(=O)C(C)Oc1ccc2c(-c3cccc(F)c3)cc(=O)oc2c1 (stereo not shown) [Compound 7, ethyl 2-[4-(3-fluorophenyl)-2-oxo-chromen-7-yl]oxypropanoate] |
| 6.00 to 7.00 | 6.30 to 7.30 | CC(C)NC(=O)C(C)Oc1ccc2c(-c3ccccc3)cc(=O)oc2c1 (stereo not shown) [Compound 12, N-isopropyl-2-(2-oxo-4-phenyl-chromen-7-yl)oxy-propanamide] |
| 6.00 to 7.00 | 6.30 to 7.30 | COC(=O)C1CCCN(C(=O)C(C)Oc2ccc3c(-c4ccccc4)cc(=O)oc3c2)C1 (stereo not shown) [Compound 15, methyl 1-[2-(2-oxo-4-phenyl-chromen-7-yl)oxypropanoyl]piperidine-3-carboxylate] |
| > 7.70 | > 8.00 | CC(Oc1ccc2c(-c3ccccc3)cc(=O)oc2c1)C(=O)N1CCCC(C#N)C1 (stereo not shown) [Compound 19, 1-[2-(2-oxo-4-phenyl-chromen-7-yl)oxypropanoyl]piperidine-3-carbonitrile] |
| 5.00 to 6.00 | 6.30 to 7.30 | CCNC(=O)C(C)Oc1ccc2c(-c3ccccc3)cc(=O)oc2c1 (stereo not shown) [Compound 30, N-ethyl-2-(2-oxo-4-phenyl-chromen-7-yl)oxy-propanamide] |
| 6.00 to 7.00 | 6.30 to 7.30 | CC(Oc1ccc2c(-c3ccccc3)cc(=O)oc2c1)C(=O)N1CCCC1 (stereo not shown) [Compound 31, 7-(1-methyl-2-oxo-2-pyrrolidin-1-yl-ethoxy)-4-phenyl-chromen-2-one] |
| 6.00 to 7.00 | 7.30 to 8.00 | CCOC(=O)C(C)(C)Oc1ccc2c(-c3ccccc3)cc(=O)oc2c1 [Compound 32, ethyl 2-methyl-2-(2-oxo-4-phenyl-chromen-7-yl)oxy-propanoate] |
| 6.00 to 7.00 | > 8.00 | CCOC(=O)[C@@H](C)Oc1ccc2c(-c3ccccc3)cc(=O)oc2c1 [Compound 33, ethyl (2R)-2-(2-oxo-4-phenyl-chromen-7-yl)oxypropanoate] |
| 5.00 to 6.00 | – | O=C(COc1cc2oc(=O)cc(-c3ccccc3)c2cc1Cl)NCCN1CCOCC1 [Compound 83, 2-(6-chloro-2-oxo-4-phenyl-chromen-7-yl)oxy-N-(2-morpholinoethyl)acetamide] |
| 5.00 to 6.00 | – | NC(=O)COc1cc2oc(=O)cc(-c3ccccc3)c2cc1Cl [Compound 84, 2-(6-chloro-2-oxo-4-phenyl-chromen-7-yl)oxyacetamide] |
| 5.00 to 6.00 | – | O=C(O)C1CCCN(C(=O)COc2cc3oc(=O)cc(-c4ccccc4)c3cc2Cl)C1 (stereo not shown) [Compound 85, 1-[2-(6-chloro-2-oxo-4-phenyl-chromen-7-yl)oxyacetyl]piperidine-3-carboxylic acid] |
| 5.00 to 6.00 | – | O=C(COc1cc2oc(=O)cc(-c3ccccc3)c2cc1Cl)NC1CCCCCCC1 [Compound 86, 2-(6-chloro-2-oxo-4-phenyl-chromen-7-yl)oxy-N-cyclooctyl-acetamide] |
| 5.00 to 6.00 | – | CCOC(=O)C(C)Oc1cc(F)c2c(-c3ccccc3)cc(=O)oc2c1 (stereo not shown) [Compound 87, ethyl 2-(5-fluoro-2-oxo-4-phenyl-chromen-7-yl)oxypropanoate] |
| 5.00 to 6.00 | – | O=C(O)COc1cc2oc(=O)cc(-c3ccccc3)c2cc1Cl [Compound 88, 2-(6-chloro-2-oxo-4-phenyl-chromen-7-yl)oxyacetic acid] |
| 5.00 to 6.00 | – | CC(Oc1cc2oc(=O)cc(-c3ccccc3)c2cc1Cl)C(=O)NC[C@H]1CC[C@H](C(=O)O)CC1 (stereo partly shown) [Compound 89, 4-[[2-(6-chloro-2-oxo-4-phenyl-chromen-7-yl)oxypropanoylamino]methyl]cyclohexanecarboxylic acid] |
| 5.00 to 6.00 | – | O=C(COc1cc2oc(=O)cc(-c3ccccc3)c2cc1Cl)NCC(O)c1ccccc1 (stereo not shown) [Compound 90, 2-(6-chloro-2-oxo-4-phenyl-chromen-7-yl)oxy-N-(2-hydroxy-2-phenyl-ethyl)acetamide] |
| 5.00 to 6.00 | – | COC(=O)COc1ccc2c(-c3ccccc3)cc(=O)oc2c1C [Compound 91, methyl 2-(8-methyl-2-oxo-4-phenyl-chromen-7-yl)oxyacetate] |
| 5.00 to 6.00 | – | CCCOC(=O)COc1cc2oc(=O)cc(-c3ccccc3)c2cc1Cl [Compound 92, propyl 2-(6-chloro-2-oxo-4-phenyl-chromen-7-yl)oxyacetate] |
| 5.00 to 6.00 | – | CC(Oc1ccc2c(-c3ccccc3)cc(=O)oc2c1)C(=O)OCc1ccccc1 (stereo not shown) [Compound 93, benzyl 2-(2-oxo-4-phenyl-chromen-7-yl)oxypropanoate] |
| 5.00 to 6.00 | – | Cc1c(OCC(=O)OC(C)(C)C)ccc2c(-c3ccccc3)cc(=O)oc12 [Compound 94, tert-butyl 2-(8-methyl-2-oxo-4-phenyl-chromen-7-yl)oxyacetate] |
| 5.00 to 6.00 | – | O=C(COc1cc2oc(=O)cc(-c3ccccc3)c2cc1Cl)NC1C=CS(=O)(=O)C1 (stereo not shown) [Compound 95, 2-(6-chloro-2-oxo-4-phenyl-chromen-7-yl)oxy-N-(1,1-dioxo-2,3-dihydrothiophen-3-yl)acetamide] |
| 5.00 to 6.00 | – | CC(Oc1ccc2c(-c3ccccc3)cc(=O)oc2c1)C(=O)NC(C(=O)O)c1ccccc1 (stereo not shown) [Compound 96, 2-[2-(2-oxo-4-phenyl-chromen-7-yl)oxypropanoylamino]-2-phenyl-acetic acid] |
| 5.00 to 6.00 | – | CCCc1cc2c(-c3ccccc3)cc(=O)oc2cc1OC(C)C(=O)O (stereo not shown) [Compound 97, 2-(2-oxo-4-phenyl-6-propyl-chromen-7-yl)oxypropanoic acid] |
| 5.00 to 6.00 | – | O=C(COc1cc2oc(=O)cc(-c3ccccc3)c2cc1Cl)NC[C@H]1CC[C@H](C(=O)O)CC1 [Compound 98, 4-[[[2-(6-chloro-2-oxo-4-phenyl-chromen-7-yl)oxyacetyl]amino]methyl]cyclohexanecarboxylic acid] |
| 5.00 to 6.00 | – | O=C(COc1cc2oc(=O)cc(-c3ccccc3)c2cc1Cl)NCc1ccccn1 [Compound 99, 2-(6-chloro-2-oxo-4-phenyl-chromen-7-yl)oxy-N-(2-pyridylmethyl)acetamide] |
